Where two headings read alike, the source gives them in different places.
Columns and labels:
guinea pig bladder [1] = conditions: in vivo; cited from earlier work
[2] = system: M3 versus M1 and M2 receptors; conditions: cited from earlier work
[3] = system: muscarinic receptors in heart and submaxillary gland; conditions: in vivo, iv; cited from earlier work
guinea pig bladder [4] = conditions: in vivo; cited from earlier work; remark: listed apart in the source
Guinea pig detrusor = type: cell-based
lung = conditions: iv
tracheal rings = type: cell-based, guinea pig
muscarinic receptors [5] = conditions: dog, in vivo; cited from earlier work
miniature swine bladder = conditions: in vivo
muscarinic receptors [6] = conditions: human, in vivo, cited from earlier work
[7] = in vivo; cited from earlier work
[8] = human, in vivo
M3 receptor = M3 receptor (Homo sapiens, UniProt P20309); conditions: cited from earlier work
Sequence of M3 receptor (P20309 whole entry): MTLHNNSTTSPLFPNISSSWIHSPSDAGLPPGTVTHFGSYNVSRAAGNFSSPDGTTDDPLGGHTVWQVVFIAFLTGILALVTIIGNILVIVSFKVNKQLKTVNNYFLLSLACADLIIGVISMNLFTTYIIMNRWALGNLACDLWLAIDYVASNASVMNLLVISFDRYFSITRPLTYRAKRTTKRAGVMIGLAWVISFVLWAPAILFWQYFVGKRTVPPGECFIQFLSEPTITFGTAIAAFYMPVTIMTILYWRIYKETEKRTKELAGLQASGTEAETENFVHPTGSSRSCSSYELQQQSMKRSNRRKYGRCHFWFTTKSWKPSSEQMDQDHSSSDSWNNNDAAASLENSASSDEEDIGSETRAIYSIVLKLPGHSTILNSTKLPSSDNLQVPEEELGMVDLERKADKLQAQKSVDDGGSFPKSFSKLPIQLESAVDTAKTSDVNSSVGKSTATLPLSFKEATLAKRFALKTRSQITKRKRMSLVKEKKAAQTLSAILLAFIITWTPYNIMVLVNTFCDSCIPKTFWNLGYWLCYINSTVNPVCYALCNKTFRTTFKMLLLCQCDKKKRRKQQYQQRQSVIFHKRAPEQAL

[9] = human, in vivo; cited from earlier work

3-(4-benzylpiperazinyl)-1,1-diphenyl-1-hydroxy-2-propanone
separation between bladder function and effect on mydriasis (guinea pig bladder [1]): 20 fold
separation between bladder function and effect on salivation (guinea pig bladder [1]): 41 fold
selective for M3 versus M1 [2]: 18 fold
selective for M3 versus M2 receptors [2]: 242 fold

O=C(OC1CCN(CCBr)CC1)C(c1ccccc1)c1ccccc1 [4-DAMP bromo mustard, N-(2-bromoethyl)-4-piperidinyl diphenylacetate]
receptors alkylated in both the heart and submaxillary gland [3]: more than 95%

CN(C)CC#CCCC(=O)C(O)(c1ccccc1)C1CCC1 (centres unmarked) [14b, 1-cyclobutyl-7-(dimethylamino)-1-hydroxy-1-phenyl-5-heptyn-2-one]
duration of action relative to oxybutynin (guinea pig bladder [4]): 5 fold

COC(=O)C1=CC[C@@H]2CC[C@H]1N2C [AEME, Anhydroecgonine methyl ester]
recovery of response to ACh after repeated washings (Guinea pig detrusor): did not recover
response of tissue to 10^−4M ACh (Guinea pig detrusor): reduced response of tissue
response to a range of ACh concentrations (up to 2×10^−3M) (Guinea pig detrusor): attenuated
reversal of attenuation by washing (Guinea pig detrusor): not reversed
safety (lung; in vivo): wide margin of safety
anticholinergic effects in the lung in vivo (lung): more sustained and dramatic than anticipated
cholinergic agonist activity (tracheal rings): lacked cholinergic agonist activity
levels at which antimuscarinic properties on tracheal rings were observed (as low as) (tracheal rings): 10^−9 M
sensitization to ACh produced by cocaine at 5×10^−6 M (tracheal rings): reduced the sensitization
type of muscarinic activity in vitro (tracheal rings): potent non-competitive muscarinic antagonist

C[N+]12CCC(CC1)C(OC(=O)C(O)(c1ccccc1)c1ccccc1)C2 (centres unmarked) [MeQNB, methyl quinuclidinyl benzilate]
rate constant k+1 (muscarinic receptors [5]): 1e+07 ± 1.7e+06 M⁻¹ s⁻¹
rate constant k−1 (muscarinic receptors [5]): 4.5e+06 ± 500000 M⁻¹ s⁻¹
Body Temp increase ° C. (miniature swine bladder): 0 °C
Heart rate % increase (miniature swine bladder): 0%
activity relative to oxybutynin (miniature swine bladder; iv): about 10 fold
rate constant of nonspecific binding (muscarinic receptors [6]): 0.03 min⁻¹
Kd (muscarinic receptors [6]; read-out: equilibrium dissociation constant kd): 2 ± 0.5 nM

CN1[C@@H]2CC[C@H]1C[C@@H](OC(=O)C(CO)c1ccccc1)C2 (some centres unmarked) [atropine]
accumulation in the heart blocked by preinjection [7]: 89%

O=C1OC2(c3ccc(O)cc3Oc3cc(O)ccc32)c2ccccc21 [fluorescein]
absorbed from the bladder [8]: About 50%

COc1ccccc1CNCCCCCCNCCCCCCCCNCCCCCCNCc1ccccc1OC [methoctramine]
Ki (M3 receptor): 408 nM

O[Si](CCCN1CCCCC1)(c1ccc(F)cc1)C1CCCCC1 (centres unmarked) [p-F-HHSiD]
Ki (M3 receptor; read-out: Ki): 28 nM

CC(CC(c1ccccc1)c1ccccc1)NC(C)(C)C (centres unmarked) [terodiline, Terodiline]
Bladder volume at first urge and bladder capacity [9]: increased
micturition frequency and incontinence episodes [9]: reduced

From US6482837B1 (priority 1998, dated 2002)
